Experimental findings from US11274100B2, “EP300/CREBBP inhibitor” (Daiichi Sankyo Company, Limited, priority 2017, dated 2022) are described below.

Molecules are shown by their SMILES.

One experiment has as its target EP300 (Homo sapiens, UniProt Q09472). Kind of experiment: Histone acetyltransferase inhibitory activity against EP300 (Test Example 1). The format is biochemical. As to conditions: 50 ng/mL EP300, 2 μM Acetyl-CoA, 100 nM Histone H4(1-25)-GSGSK (Biotin), 28° C. for 1 hour. How it is done: (§1) [Test Example 1] Evaluation of Histone
(§2) Acetyltransferase Inhibitory Activity against EP300 and CREBBP
(§3) 10 μL each of reaction solutions each containing a different concentration of the compound of each of Examples 1 to 108b (50 mM Tris-HCl (pH8.0), 0.1 mM EDTA, 1 mM dithiothreitol, 0.01% Tween-20, 0.01% Bovine serum albumin, 330 nM trichostatin A, 2 μM Acetyl-CoA (Sigma-Aldrich, #A2056), 100 nM Histone H4(1-25)-GSGSK (Biotin) (Anaspec, #65242-1), 1% dimethyl sulfoxide, 10 to 0.0006 μM of each compound, 50 ng/mL EP300 or 125 ng/mL CREBBP) was added to respective wells of a 384-well plate, and cultured at 28° C. for 1 hour. Thereafter, 5 μL of 30 μM Lys-CoA (Daiichi Sankyo Co., Ltd.) dissolved in LANCE detection buffer (Perkin Elmer Co., Ltd., #CR97-100) was added to each well. Furthermore, 5 μL of LANCE detection buffer containing 2 nM Eu-anti pan-Ac (Perkin Elmer Co., Ltd., #TRF0412) and 50 nM Sta-Ulight (Perkin Elmer Co., Ltd., #TRF0102) was added to each well, and the resultant was cultured at room temperature overnight. EnVision (Perkin Elmer Co., Ltd., Model 2104-0020) was used to measure ULight signals. […] EP300 and CREBBP were produced and purified by Daiichi Sankyo RD Novare Co., Ltd.

A further experiment addresses CREBBP (Homo sapiens, UniProt Q92793). Kind of experiment: Histone acetyltransferase inhibitory activity against CREBBP (Test Example 1). It is filed as biochemical. As to conditions: 125 ng/mL CREBBP, 2 μM Acetyl-CoA, 100 nM Histone H4(1-25)-GSGSK (Biotin), 28° C. for 1 hour. The procedure: as §1, §2, §3
A further experiment has as its system H3K27Ac. Kind of experiment: Intracellular H3K27Ac inhibitory activity in LK2 cells (Test Example 2). It is filed as cell-based. As to conditions: Homo sapiens, LK-2, cultured with compound for 3 hours, read-out: Test Example 2 H3K27Ac Inhibition (LK2) IC50. How it is done:
[Test Example 2] Evaluation of Intracellular H3K27Ac Inhibitory Activity
LK2 cells derived from human squamous cell lung cancer were seeded in a 96 well plate at 40000 cells/100 μL/well, and were cultured overnight at 37° C. in 5% CO2. The LK2 cells were purchased from Human Science Research Resources Bank. […] The supernatant was discarded, 4% paraformaldehyde was added thereto at 100 μL/well, and the resultant was allowed to stand still at room temperature for 15 minutes. The 4% paraformaldehyde was discarded, and the resultant was washed with PBS-T. A quenching buffer (PBS-T containing 1% H2O2) was added thereto at of 100 μL/well, and the resultant was allowed to stand still at room temperature for 10 minutes. The resultant was washed with PBS-T, a blocking buffer (StartingBlocK T20 (TBS) Blocking Buffer (Thermo […], #37543)) was added thereto at 200 μL/well, and the resultant was allowed to stand still at room temperature for 1 hour. The supernatant was discarded, Acetyl-Histone H3 (Lys27) (D5E4) XP (registered trademark) Rabbit mAb (cell Signaling, #8173) diluted with a blocking buffer was added thereto at 50 μL/well, and the resultant was allowed to stand still at 4° C. overnight. The resultant was washed with PBS-T, Anti-Rabbit IgG-HRP (Cell Signaling, #7074S) diluted with a blocking buffer was added thereto at 50 μL/well, and the resultant was cultured at room temperature for 1 hour. The resultant was washed with PBS-T, SuperSignal (registered trademark) ELISA Pico Chemiluminescent Substrate (Thermo […], #37069) was added thereto at 50 μL/well, and a signal was measured using EnVision.

In a further experiment the test system is LK2 cells. Kind of experiment: Cell growth inhibitory activity, LK2 cells (Test Example 3). It is filed as cell-based. As to conditions: Homo sapiens, LK-2, 72 h, cultured for 3 days, CellTiter-Glo. How it is done: (§4) [Test Example 3] Evaluation of Cell Growth Inhibitory Activity
(§5) As a culture medium for each cell, a 10% FBS supplemented RPMI 1640 medium (for LK2 cells and TE-8 cells derived from human esophageal cancer) was used. LK2 cells were purchased from Human Science Research Resources Bank, and TE-8 cells were purchased from Riken Cell Bank. The compound of each of Examples 1 to 108b was prepared by dilution with Freedom EVO 150 (Tecan Trading AG) (4-fold diluted, 10 stages, 10 mM to 38 nM). The resultant was added to respective wells of a 384-well plate in an amount of 40 nL/well using Echo 555 (Labcyte Inc.). The LK2 or TE-8 cells were seeded in the plate at 400 cells/40 μL/well (day 0), and were cultured for 3 days. On the day of addition of the compound (day 0) and 3 days after the addition of the compound (day 3), an ATP measurement reagent of CellTiter-Glo (registered trademark) 2.0 Assay (Promega Corporation, #G9242) was added to each well in an amount of 10 μL/well, and the amount of luminescence of each well was measured using EnVision. Based on the amount of luminescence (C0) on the day of the addition of the compound, and the amounts of luminescence of a compound non-addition group (C3) and a compound addition group (T3) obtained after the 3-day culture of the compound, a cell survival rate was calculated in accordance with the following expression: Cell survival rate (%)=(T3−C0)/(C3−C0)×100
(§6) A concentration (GI50 value) of each compound at which the growth of the TE-8 or LK-2 cells was inhibited by 50% was calculated by semilogarithmically plotting the cell survival rate at each concentration and the compound concentration.

The next experiment relates to TE-8 cells. The experiment in a line: Cell growth inhibitory activity, TE-8 cells (Test Example 3). It is filed as cell-based. Particulars: Homo sapiens, 72 h, cultured for 3 days, CellTiter-Glo. The procedure: as §4, §5, §6

Sequence of EP300 (Q09472 whole entry): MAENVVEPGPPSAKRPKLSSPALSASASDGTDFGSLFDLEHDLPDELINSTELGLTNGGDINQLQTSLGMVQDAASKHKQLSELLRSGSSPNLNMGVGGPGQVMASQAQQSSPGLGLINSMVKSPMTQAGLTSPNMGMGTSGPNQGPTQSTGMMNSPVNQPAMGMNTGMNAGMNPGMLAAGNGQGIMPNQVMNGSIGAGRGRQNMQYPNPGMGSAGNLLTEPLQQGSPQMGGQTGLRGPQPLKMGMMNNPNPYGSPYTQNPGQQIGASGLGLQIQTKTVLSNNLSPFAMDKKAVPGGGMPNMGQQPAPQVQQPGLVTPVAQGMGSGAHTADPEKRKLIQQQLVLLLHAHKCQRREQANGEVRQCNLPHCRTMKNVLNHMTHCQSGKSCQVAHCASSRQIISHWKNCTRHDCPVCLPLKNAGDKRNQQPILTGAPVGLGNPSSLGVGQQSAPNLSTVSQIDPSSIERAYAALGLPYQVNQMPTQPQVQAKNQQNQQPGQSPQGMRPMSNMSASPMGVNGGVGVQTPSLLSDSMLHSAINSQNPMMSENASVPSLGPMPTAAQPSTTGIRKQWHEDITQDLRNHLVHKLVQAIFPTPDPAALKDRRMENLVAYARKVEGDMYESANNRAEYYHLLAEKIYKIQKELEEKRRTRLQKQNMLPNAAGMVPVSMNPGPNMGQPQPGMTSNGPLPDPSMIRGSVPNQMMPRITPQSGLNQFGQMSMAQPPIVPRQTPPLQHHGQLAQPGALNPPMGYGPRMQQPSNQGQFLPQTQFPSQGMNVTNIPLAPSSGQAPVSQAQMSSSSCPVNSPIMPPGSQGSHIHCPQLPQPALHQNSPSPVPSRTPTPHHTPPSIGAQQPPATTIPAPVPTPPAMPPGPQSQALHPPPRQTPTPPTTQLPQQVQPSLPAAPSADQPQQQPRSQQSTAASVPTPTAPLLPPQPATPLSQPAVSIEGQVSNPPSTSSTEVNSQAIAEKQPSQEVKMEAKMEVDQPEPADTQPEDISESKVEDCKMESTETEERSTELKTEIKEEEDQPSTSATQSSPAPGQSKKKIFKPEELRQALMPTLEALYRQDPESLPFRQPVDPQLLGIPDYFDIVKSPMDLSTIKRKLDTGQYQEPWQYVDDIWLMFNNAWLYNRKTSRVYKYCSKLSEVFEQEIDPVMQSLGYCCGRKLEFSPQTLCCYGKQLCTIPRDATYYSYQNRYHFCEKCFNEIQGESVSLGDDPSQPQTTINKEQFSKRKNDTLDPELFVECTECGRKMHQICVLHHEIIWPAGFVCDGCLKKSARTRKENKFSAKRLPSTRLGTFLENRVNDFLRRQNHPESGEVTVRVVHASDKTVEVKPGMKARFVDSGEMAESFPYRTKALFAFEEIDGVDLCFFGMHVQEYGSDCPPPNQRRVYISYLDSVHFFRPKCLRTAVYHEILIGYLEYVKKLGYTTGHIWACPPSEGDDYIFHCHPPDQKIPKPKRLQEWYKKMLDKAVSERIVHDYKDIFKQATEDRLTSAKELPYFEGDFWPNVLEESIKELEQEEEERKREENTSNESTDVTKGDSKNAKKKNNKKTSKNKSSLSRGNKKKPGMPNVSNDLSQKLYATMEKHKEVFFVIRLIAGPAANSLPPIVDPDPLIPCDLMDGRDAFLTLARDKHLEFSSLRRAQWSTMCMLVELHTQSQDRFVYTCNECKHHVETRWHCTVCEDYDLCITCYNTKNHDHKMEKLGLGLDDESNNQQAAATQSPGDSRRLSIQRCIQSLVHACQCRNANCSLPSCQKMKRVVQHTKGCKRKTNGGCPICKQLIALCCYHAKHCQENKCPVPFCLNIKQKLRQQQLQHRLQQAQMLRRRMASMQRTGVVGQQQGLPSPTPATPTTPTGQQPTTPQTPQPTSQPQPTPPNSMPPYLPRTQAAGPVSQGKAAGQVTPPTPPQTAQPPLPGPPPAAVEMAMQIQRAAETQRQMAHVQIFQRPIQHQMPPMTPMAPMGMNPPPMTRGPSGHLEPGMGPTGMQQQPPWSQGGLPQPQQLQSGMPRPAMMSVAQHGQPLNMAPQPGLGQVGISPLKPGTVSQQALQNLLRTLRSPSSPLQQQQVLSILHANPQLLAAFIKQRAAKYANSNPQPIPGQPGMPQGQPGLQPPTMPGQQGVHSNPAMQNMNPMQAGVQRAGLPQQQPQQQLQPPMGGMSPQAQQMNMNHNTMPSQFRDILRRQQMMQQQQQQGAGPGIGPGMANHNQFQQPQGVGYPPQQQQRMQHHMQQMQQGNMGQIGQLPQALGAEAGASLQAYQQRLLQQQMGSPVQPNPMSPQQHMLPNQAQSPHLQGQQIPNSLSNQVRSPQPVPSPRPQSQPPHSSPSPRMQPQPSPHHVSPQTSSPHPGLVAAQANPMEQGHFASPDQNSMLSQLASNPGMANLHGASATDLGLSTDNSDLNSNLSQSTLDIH
Sequence of CREBBP (Q92793 whole entry): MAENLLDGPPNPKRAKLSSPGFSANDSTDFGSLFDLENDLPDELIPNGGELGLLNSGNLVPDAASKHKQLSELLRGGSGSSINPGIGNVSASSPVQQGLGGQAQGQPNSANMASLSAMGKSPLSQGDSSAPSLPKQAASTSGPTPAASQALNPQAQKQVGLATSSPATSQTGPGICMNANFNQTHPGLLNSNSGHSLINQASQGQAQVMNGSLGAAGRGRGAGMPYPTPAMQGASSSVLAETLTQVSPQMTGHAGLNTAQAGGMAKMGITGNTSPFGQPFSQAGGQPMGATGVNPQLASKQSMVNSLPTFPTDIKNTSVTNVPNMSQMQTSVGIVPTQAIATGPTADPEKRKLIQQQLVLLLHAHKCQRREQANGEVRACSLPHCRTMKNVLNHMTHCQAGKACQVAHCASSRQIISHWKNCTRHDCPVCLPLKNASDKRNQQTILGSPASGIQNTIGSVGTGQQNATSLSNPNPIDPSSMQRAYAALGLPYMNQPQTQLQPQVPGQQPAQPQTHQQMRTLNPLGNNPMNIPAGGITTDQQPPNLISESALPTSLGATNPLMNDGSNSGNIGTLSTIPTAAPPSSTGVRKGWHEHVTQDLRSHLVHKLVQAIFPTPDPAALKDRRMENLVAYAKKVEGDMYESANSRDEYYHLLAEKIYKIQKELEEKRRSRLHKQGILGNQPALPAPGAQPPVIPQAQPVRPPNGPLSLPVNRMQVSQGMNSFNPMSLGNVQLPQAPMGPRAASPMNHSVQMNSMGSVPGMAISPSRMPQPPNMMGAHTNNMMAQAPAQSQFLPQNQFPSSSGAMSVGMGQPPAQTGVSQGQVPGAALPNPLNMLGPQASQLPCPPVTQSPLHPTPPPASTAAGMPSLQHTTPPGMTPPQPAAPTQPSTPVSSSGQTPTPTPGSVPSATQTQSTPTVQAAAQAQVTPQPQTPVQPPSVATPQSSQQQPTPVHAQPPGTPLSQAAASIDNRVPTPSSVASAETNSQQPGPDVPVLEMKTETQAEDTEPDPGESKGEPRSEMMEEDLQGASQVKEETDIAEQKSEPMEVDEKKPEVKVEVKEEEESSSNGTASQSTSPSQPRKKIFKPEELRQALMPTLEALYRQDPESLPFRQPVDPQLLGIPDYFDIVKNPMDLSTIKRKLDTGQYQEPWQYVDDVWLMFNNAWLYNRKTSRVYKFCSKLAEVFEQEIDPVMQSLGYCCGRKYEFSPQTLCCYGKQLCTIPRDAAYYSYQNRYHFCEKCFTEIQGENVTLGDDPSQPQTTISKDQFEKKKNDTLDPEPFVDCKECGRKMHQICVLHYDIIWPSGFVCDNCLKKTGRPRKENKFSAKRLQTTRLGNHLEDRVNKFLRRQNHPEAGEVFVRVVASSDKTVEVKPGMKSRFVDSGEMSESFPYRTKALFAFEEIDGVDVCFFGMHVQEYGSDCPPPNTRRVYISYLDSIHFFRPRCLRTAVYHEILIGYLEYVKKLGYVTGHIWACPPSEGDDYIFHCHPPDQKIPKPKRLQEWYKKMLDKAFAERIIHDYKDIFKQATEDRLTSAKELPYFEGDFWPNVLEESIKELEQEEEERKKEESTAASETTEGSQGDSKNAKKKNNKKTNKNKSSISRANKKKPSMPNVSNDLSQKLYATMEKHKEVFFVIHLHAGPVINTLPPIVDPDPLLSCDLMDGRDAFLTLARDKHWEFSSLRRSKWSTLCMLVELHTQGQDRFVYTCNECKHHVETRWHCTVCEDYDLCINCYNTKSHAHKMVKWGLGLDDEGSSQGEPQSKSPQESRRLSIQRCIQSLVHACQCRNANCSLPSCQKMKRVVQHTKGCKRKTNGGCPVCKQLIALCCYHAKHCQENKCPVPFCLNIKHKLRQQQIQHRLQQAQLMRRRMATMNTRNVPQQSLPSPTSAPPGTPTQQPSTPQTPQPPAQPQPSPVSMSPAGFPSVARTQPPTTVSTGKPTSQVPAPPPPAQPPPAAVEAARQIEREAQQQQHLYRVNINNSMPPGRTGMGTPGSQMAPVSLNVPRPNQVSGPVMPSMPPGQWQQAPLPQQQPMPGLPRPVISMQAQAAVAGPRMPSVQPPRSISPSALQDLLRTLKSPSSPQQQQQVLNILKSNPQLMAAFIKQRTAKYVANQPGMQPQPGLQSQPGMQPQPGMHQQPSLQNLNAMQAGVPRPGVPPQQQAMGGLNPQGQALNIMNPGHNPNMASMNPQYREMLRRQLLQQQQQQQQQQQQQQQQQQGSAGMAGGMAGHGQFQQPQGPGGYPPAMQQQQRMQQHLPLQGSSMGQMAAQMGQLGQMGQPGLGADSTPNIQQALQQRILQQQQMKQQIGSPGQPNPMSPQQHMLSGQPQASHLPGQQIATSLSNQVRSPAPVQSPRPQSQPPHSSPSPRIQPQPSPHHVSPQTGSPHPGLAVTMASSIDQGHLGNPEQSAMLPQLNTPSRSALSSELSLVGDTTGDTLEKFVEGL

Turning to `COc1ccc(C2(C(=O)N3CCC[C@@H]3C(=O)Nc3cccc4[nH]ncc34)CCCCCC2)cc1` [Example 54], the IC50 on EP300 stood at 126 nM; at CREBBP it was 201 nM; in the experiment with H3K27Ac it was 920 nM. In addition, the GI50 in the experiment on LK2 cells is 2970 nM; with TE-8 cells, 4480 nM.

On to `O=C(Nc1ccc2[nH]ncc2n1)[C@H]1C[C@@H](F)CN1C(=O)C1(c2ccc(NS(=O)(=O)c3ccccc3)cc2)CCC(F)(F)CC1` [Example 104, (4R)-1-[(4,4-Difluoro-1-{4-[(phenylsulfonyl)amino]phenyl}cyclohexyl)carbonyl]-4-fluoro-N-1H-pyrazolo[4,3-b]pyridin-5-yl-D-prolinamide], for which the concentration for half-maximal inhibition (IC50) at EP300 worked out at 26 nM; at CREBBP it was 58 nM; in the experiment on H3K27Ac it was 138 nM. The GI50 is 512 nM in the experiment with LK2 cells and 656 nM in the experiment with TE-8 cells.

Turning to `COc1ccc(C2(C(=O)N3C[C@H](F)C[C@@H]3C(=O)Nc3ccc4cc[nH]c4n3)CCCCC2)cc1` [Example 52], the results for the IC50 against EP300, against CREBBP and in the experiment with H3K27Ac were 21 nM, 51 nM and 28 nM, respectively. Besides, the figures for the GI50 in the experiment with LK2 cells and in the experiment with TE-8 cells were 254 nM and 439 nM, respectively.

Turning to `CNCc1cc2nc(NC(=O)[C@H]3C[C@@H](F)CN3C(=O)C3(c4ccc(OC(F)F)cc4)CCC(F)(F)CC3)ccc2[nH]1` [Example 103, (4R)-1-({1-[4-(Difluoromethoxy)phenyl]-4,4-difluorocyclohexyl}carbonyl)-4-fluoro-N-{2-[(methylamino)methyl]-1H-pyrrolo[3,2-b]pyridin-5-yl}-D-prolinamide], the IC50 came to 41 nM on EP300, 77 nM against CREBBP and 34 nM in the experiment on H3K27Ac. Further, the figures for the GI50 with LK2 cells and in the experiment with TE-8 cells were 184 nM and 304 nM, respectively.

Turning to `COc1ccc(C2(C(=O)N(C)[C@H](CCO)C(=O)Nc3ccc4[nH]ncc4n3)CCC(F)(F)CC2)cc1` [Example 69, 4,4-Difluoro-N-[(2R)-4-hydroxy-1-oxo-1-(1H-pyrazolo[4,3-b]pyridin-5-ylamino)butan-2-yl]-1-(4-methoxyphenyl)-N-methylcyclohexanecarboxamide], the IC50 is 157 nM against EP300, 239 nM against CREBBP and 402 nM in the experiment on H3K27Ac. For the same compound, the figures for the GI50 in the experiment with LK2 cells and in the experiment on TE-8 cells were 3120 nM and 4190 nM, respectively.

With `COc1ccc(C2(C(=O)N3C[C@H](F)C[C@@H]3C(=O)Nc3ccc4[nH]ncc4n3)CCOCC2)cc1` [Example 45, (4R)-4-Fluoro-1-{[4-(4-methoxyphenyl)tetrahydro-2H-pyran-4-yl]carbonyl}-N-1H-pyrazolo[4,3-b]pyridin-5-yl-D-prolinamide], the IC50 is 31 nM against EP300, 128 nM at CREBBP and 101 nM with H3K27Ac. For the same compound, the concentration for 50% growth inhibition (GI50) in the experiment with LK2 cells was found to be 733 nM; in the experiment on TE-8 cells, 1350 nM.

`O=C(Nc1ccc2[nH]ncc2n1)[C@H]1C[C@@H](F)CN1C(=O)C1(c2ccc(OCF)cc2)CCC(F)(F)CC1` [Example 48]: the IC50 against EP300 amounted to 14 nM; at CREBBP, 34 nM; with H3K27Ac it was 25 nM. Moreover, the GI50 in the experiment with LK2 cells was found to be 105 nM; in the experiment on TE-8 cells, 135 nM.

Regarding `COC(=O)c1ccc(C2(C(=O)N3C[C@H](F)C[C@@H]3C(=O)Nc3ccc4[nH]ncc4n3)CCCCC2)cc1` [Example 81b, methyl 4-(1-{[(2R,4R)-4-Fluoro-2-(1H-pyrazolo[4,3-b]pyridin-5-ylcarbamoyl)pyrrolidin-1-yl]carbonyl}cyclohexyl)benzoate], the IC50 was found to be 41 nM against EP300, 64 nM at CREBBP and 16 nM with H3K27Ac. Further, the GI50 in the experiment on LK2 cells was 231 nM; in the experiment on TE-8 cells it was 258 nM.

In the case of `CS(=O)(=O)Nc1ccc(C2(C(=O)N3C[C@H](F)C[C@@H]3C(=O)Nc3ccc4[nH]ncc4n3)CCC(F)(F)CC2)cc1` [Example 102, (4R)-1-[(4,4-Difluoro-1-{4-[(methylsulfonyl)amino]phenyl}cyclohexyl)carbonyl]-4-fluoro-N-1H-pyrazolo[4,3-b]pyridin-5-yl-D-prolinamide], the IC50 on EP300 is 40 nM; on CREBBP it was 84 nM; in the experiment with H3K27Ac, 126 nM. The GI50 with LK2 cells is 323 nM; with TE-8 cells, 439 nM.

Consider `CC(C)(C(=O)N1C[C@H](F)C[C@@H]1C(=O)Nc1ccc2[nH]ncc2n1)c1ccc(OC(F)(F)F)cc1` [Example 58], for which the IC50 against EP300 worked out at 60 nM; against CREBBP it was 75 nM; in the experiment with H3K27Ac, 173 nM. Besides, the GI50 with LK2 cells was determined as 699 nM; in the experiment with TE-8 cells, 1280 nM.

Take `CC(=O)Nc1ccc(C2(C(=O)N3C[C@H](F)C[C@@H]3C(=O)Nc3ccc4[nH]ncc4n3)CCC(F)(F)CC2)cc1` [Example 101, (4R)-1-({1-[4-(acetylamino)phenyl]-4,4-difluorocyclohexyl}carbonyl)-4-fluoro-N-1H-pyrazolo[4,3-b]pyridin-5-yl-D-prolinamide]: the IC50 against EP300 came to 120 nM; against CREBBP, 235 nM; in the experiment with H3K27Ac, 240 nM. The GI50 in the experiment with LK2 cells worked out at 707 nM; in the experiment on TE-8 cells, 1050 nM.

Consider `COc1ccc(C2(C(=O)N3CCC[C@@H]3C(=O)Nc3cccc4[nH]ncc34)CCC2)cc1` [Example 53, N-1H-Indazol-4-yl-1-{[1-(4-methoxyphenyl)cyclobutyl]carbonyl}-D-prolinamide], for which the IC50 with H3K27Ac amounted to 2080 nM. In addition, the results for the GI50 in the experiment with LK2 cells and in the experiment with TE-8 cells were 2640 nM and 6060 nM, respectively.

Regarding `COc1ccc(C2(C(=O)N3CCC[C@@H]3C(=O)Nc3cccc4[nH]ncc34)CCCC2)cc1` [Example 1, N-1H-Indazol-4-yl-1-{[1-(4-methoxyphenyl)cyclopentyl]carbonyl}-D-prolinamide], the IC50 was 176 nM on EP300 and 218 nM on CREBBP. Moreover, the GI50 in the experiment on LK2 cells is 2740 nM; with TE-8 cells it was 3410 nM.

As to `COc1ccc(C2(C(=O)N3CCC[C@@H]3C(=O)Nc3ccn(C)n3)CCCC2)cc1` [Example 22, 1-{[1-(4-Methoxyphenyl)cyclopentyl]carbonyl}-N-(1-methyl-1H-pyrazol-3-yl)-D-prolinamide], the values for the IC50 against EP300, at CREBBP and in the experiment with H3K27Ac were 962 nM, 676 nM and 2250 nM, respectively.
